The structures appear in SMILES notation. Where a name gives a salt, the structure may show the parent alone.

Turning to `CCOc1cc([C@@H](CC(=O)NO)N2Cc3cccc(NC(=O)C4CC4)c3C2=O)ccc1OC` [Example 9, (1R)-Cyclopropanecarboxylic acid {2-[1-(3-ethoxy-4-methoxy-phenyl)-2-hydroxycarbamoyl-ethyl]-3-oxo-2,3-dihydro-1H-isoindol-4-yl}-amide], the melting point (in general, the temperature of the solid-liquid transition) lay in the range of 160 to 162 °C.

Consider `CCOc1cc([C@@H](CCS(C)(=O)=O)N2Cc3cccc(NC(=O)C4CC4)c3C2=O)ccc1OC` [Example 8, (1R)-Cyclopropanecarboxylic acid {2-[1-(3-ethoxy-4-methoxy-phenyl)-3-methanesulfonyl-propyl]-3-oxo-2,3-dihydro-1H-isoindol-4-yl}-amide], for which the melting point lay in the range of 148 to 150 °C.

Compound `CCOc1cc([C@@H](CCN)N2Cc3cccc(NC(=O)C4CC4)c3C2=O)ccc1OC` (as salt: salt) [Example 5, (1R)-Cyclopropanecarboxylic acid {2-[3-amino-1-(3-ethoxy-4-methoxy-phenyl)-propyl]-3-oxo-2,3-dihydro-1H-isoindol-4-yl}-amide] displayed a melting point of 169 to 171 °C.

In the case of `CCOc1cc([C@@H](CCNC(N)=O)N2Cc3cccc(NC(=O)C4CC4)c3C2=O)ccc1OC` [Example 6, (1R)-Cyclopropanecarboxylic acid {2-[1-(3-ethoxy-4-methoxy-phenyl)-3-ureido-propyl]-3-oxo-2,3-dihydro-1H-isoindol-4-yl}-amide], the melting point fell in the range of 162 to 164 °C. On to `CCOc1cc([C@@H](CC(=O)NOC(C)=O)N2Cc3c(Cl)ccc(NC(=O)C4CC4)c3C2=O)ccc1OC` [Example 17, (1R)-Cyclopropanecarboxylic acid {2-[2-acetoxycarbamoyl-1-(3-ethoxy-4-methoxy-phenyl)-ethyl]-7-chloro-3-oxo-2,3-dihydro-1H-isoindol-4-yl}-amide], for which the melting point was in the range of 139 to 141 °C.

On to `CCOc1cc(C(CC#N)N2Cc3c(Cl)ccc(NC(=O)C4CC4)c3C2=O)ccc1OC` (stereo not shown) [Example 21, Cyclopropanecarboxylic acid {7-chloro-2-[2-cyano-1-(3-ethoxy-4-methoxy-phenyl)-ethyl]-3-oxo-2,3-dihydro-1H-isoindol-4-yl}-amide], for which the melting point is 200 to 202 °C. The figure for `CCOc1cc([C@@H](CC(=O)NOC(=O)C2CC2)N2Cc3cccc(NC(=O)C4CC4)c3C2=O)ccc1OC` [Example 24, (1R)-Cyclopropanecarboxylic acid {2-[2-cyclopropanecarbonyloxycarbamoyl-1-(3-ethoxy-4-methoxy-phenyl)-ethyl]-3-oxo-2,3-dihydro-1H-isoindol-4-yl}-amide] is 130 to 132 °C.

The compound `CCOc1cc([C@@H](CS(C)(=O)=O)N2Cc3c(Cl)ccc(NC(=O)C4CC4)c3C2=O)ccc1OC` [Example 18, (1S)-Cyclopropanecarboxylic acid {7-chloro-2-[1-(3-ethoxy-4-methoxy-phenyl)-2-methanesulfonyl-ethyl]-3-oxo-2,3-dihydro-1H-isoindol-4-yl}-amide] gave a melting point of 197 to 199 °C.

For the compound `CCOc1cc([C@@H](CC(=O)NOC(=O)C(C)(C)C)N2Cc3cccc(NC(=O)C4CC4)c3C2=O)ccc1OC` [Example 26, (1R)-Cyclopropanecarboxylic acid {2-[2-(2,2-dimethyl-propionyloxycarbamoyl)-1-(3-ethoxy-4-methoxy-phenyl)-ethyl]-3-oxo-2,3-dihydro-1H-isoindol-4-yl}-amide], the melting point fell in the range of 146 to 148 °C.

For the compound `CCOc1cc([C@@H](CC[S+](C)[O-])N2Cc3cccc(NC(=O)C4CC4)c3C2=O)ccc1OC` (stereo partly drawn) [Example 11, (3R)-Cyclopropanecarboxylic acid {2-[1-(3-ethoxy-4-methoxy-phenyl)-3-methanesulfinyl-propyl]-3-oxo-2,3-dihydro-1H-isoindol-4-yl}-amide], the melting point lay in the range of 122 to 125 °C.

`CCOc1cc([C@@H](CC(N)=O)N2Cc3c(Cl)ccc(NC(=O)C4CC4)c3C2=O)ccc1OC` [Example 14, (1R)-Cyclopropanecarboxylic acid {2-[2-carbamoyl-1-(3-ethoxy-4-methoxy-phenyl)-ethyl]-7-chloro-3-oxo-2,3-dihydro-1H-isoindol-4-yl}-amide] gave a melting point of 201 to 203 °C. Consider `CCOc1cc([C@@H](CCNS(C)(=O)=O)N2Cc3cccc(NC(=O)C4CC4)c3C2=O)ccc1OC` [Example 4, (1R)-Cyclopropanecarboxylic acid {2-[1-(3-ethoxy-4-methoxy-phenyl)-3-methanesulfonylamino-propyl]-3-oxo-2,3-dihydro-1H-isoindol-4-yl}-amide], for which the melting point was in the range of 93 to 95 °C. The figure for `CCOc1cc([C@@H](CC(=O)N(C)C)N2Cc3c(Cl)ccc(NC(=O)C4CC4)c3C2=O)ccc1OC` [Example 15, (1R)-Cyclopropanecarboxylic acid {7-chloro-2-[2-dimethylcarbamoyl-1-(3-ethoxy-4-methoxy-phenyl)-ethyl]-3-oxo-2,3-dihydro-1H-isoindol-4-yl}-amide] is 163 to 165 °C; for `CCOc1cc([C@@H](CC(=O)NOC(=O)C(C)C)N2Cc3cccc(NC(=O)C4CC4)c3C2=O)ccc1OC` [Example 25, (1R)-Cyclopropanecarboxylic acid {2-[1-(3-ethoxy-4-methoxy-phenyl)-2-isobutyryloxycarbamoyl-ethyl]-3-oxo-2,3-dihydro-1H-isoindol-4-yl}-amide] it is 107 to 109 °C.

Compound `CCOc1cc([C@@H](CS(C)(=O)=O)N2Cc3c(F)ccc(NC(=O)C4CC4)c3C2=O)ccc1OC` [Example 28, (1S)-Cyclopropanecarboxylic acid {2-[1-(3-ethoxy-4-methoxy-phenyl)-2-methanesulfonyl-ethyl]-7-fluoro-3-oxo-2,3-dihydro-1H-isoindol-4-yl}-amide] yielded a melting point of 176 to 178 °C. With `CCOc1cc([C@@H](CC(=O)O)N2Cc3c(Cl)ccc(NC(=O)C4CC4)c3C2=O)ccc1OC` [Example 12, (3R)-3-[4-Chloro-7-(cyclopropanecarbonyl-amino)-1-oxo-1,3-dihydro-isoindol-2-yl]-3-(3-ethoxy-4-methoxy-phenyl)-propionic acid], the melting point was 118 to 120 °C. The same measure for `CCOc1cc(C(Cc2c(Cl)cncc2Cl)N2Cc3cccc(NC(=O)C4CC4)c3C2=O)ccc1OC` (stereo not shown) [Example 22, Cyclopropanecarboxylic acid {2-[2-(3,5-dichloro-pyridin-4-yl)-1-(3-ethoxy-4-methoxy-phenyl)-ethyl]-3-oxo-2,3-dihydro-1H-isoindol-4-yl}-amide]: 159 to 161 °C. The compound `CCOc1cc([C@@H](CCN(C)C)N2Cc3cccc(NC(=O)C4CC4)c3C2=O)ccc1OC.Cl` yielded a melting point of 119 to 121 °C. The same measure for `CCOc1cc([C@@H](CC(=O)NOC(C)=O)N2Cc3cccc(NC(=O)C4CC4)c3C2=O)ccc1OC` [Example 10, (1R)-Cyclopropanecarboxylic acid {2-[2-acetoxycarbamoyl-1-(3-ethoxy-4-methoxy-phenyl)-ethyl]-3-oxo-2,3-dihydro-1H-isoindol-4-yl}-amide]: 140 to 142 °C.
